Experimental data from paper PMC12523843, “Kuwanon A Targeted YWHAB in Hepatocellular Carcinoma Cells to Inhibit the Raf/MEK/ERK Signaling Pathway” (Cells, 2025).

What was measured:
[1] = tested on: nuclear translocation of ERK; test: ERK nuclear translocation (nuclear/cytoplasmic extraction, immunofluorescence); assay type: cell-based, human; conditions: 10 μM, 48 h, confocal microscopy
Procedure: After treating HCC cells with KA or DMSO, the cells were collected by cell scraping. Adding an appropriate amount of PMSF and reagent A (Nuclear and Cytoplasmic Protein Extraction Kit, Beyotime, Shanghai, China). Vortexed and then ice bathed for 15 min. Adding the reagent B provided in the kit mentioned before. Then vortexed and ice bathed for 1 min. Vortexed again. Centrifuged at 14,000× g for 5 min. The supernatant was cytoplasmic protein. Adding a certain amount of nuclear protein extraction reagent to the precipitate. Multiple vortices within 30 min. Centrifuged at 14,000× g for 10 min. The obtained supernatant was the nuclear protein.

[2] = tested on: HCC cells (MHCC97 H and SMMC 7721); test: Cell wound healing assay; assay type: cell-based, human; conditions: 48 h, vs DMSO
Procedure: We seeded the cells in 6-well plates and allowed them to adhere and grow to full confluence. Then, we gently scratched the cell monolayer in a straight line using a sterile pipette tip. We rinsed the wells with PBS to remove detached cells and debris. We captured bright-field images of the scratched area at baseline (0 h). We replaced the medium with DMEM containing KA or DMSO and continued incubation. We re-imaged the same wound areas at 24 h and 48 h post-scratch. We quantified cell migration by measuring wound closure (%) over time using image analysis software.

MHCC97 H cells = test: Transwell migration screen of selected compounds; assay type: cell-based, human; conditions: compounds at an IC50 concentration
Procedure: The Transwell assay measured the migration and invasion of cells by calculating the number of cells that passed through the material. Prior to the Transwell migration assay, cells were serum-starved in FBS-free culture medium for 24 h. The cells were then detached using trypsin, washed 1–2 times with PBS, and resuspended in DMEM. Approximately 50,000–100,000 cells were seeded into the upper chamber of the Transwell insert. The lower chamber was filled with 600 μL of complete medium containing the test compound. The Transwell system was incubated for 12 h under standard culture conditions (37 °C, 5% CO2). After incubation, the migrated cells on the lower membrane surface were fixed with 4% paraformaldehyde (PFA) and stained with 0.1% crystal violet. Non-migrated cells remaining in the upper chamber were carefully removed with a cotton swab. Finally, the stained cells were visualized under a microscope. If matrix gel was needed, it should be added according to the instructions (Beyotime, Shanghai, China) before the cells were seeded.

[3] = tested on: MHCC97 H cells labeled with luciferase; test: In vivo imaging of pulmonary metastasis after tail vein injection; set-up: species or system BALB/c-nu mice; conditions: 30 mg/kg intraperitoneal, once every two days, 32 days
Source text: Thirty-six female BALB/c-nu mice, four weeks old (supplied by Slike Jingda Laboratory Animal Co., Ltd., Changsha, China; Animal qualification number: SCXK-2019-0004), were housed in an SPF room. […] Therefore, female mice were selected for this study; 12 mice were used to establish the hepatocellular carcinoma xenografts. MHCC97 H cells (1 × 10^5 cells) were slowly injected into the left lobe of the mouse liver after being anesthetized with isoflurane. Three days later, the mice received intraperitoneal injections of KA (30 mg/kg) every two days for 45 days. Control mice were administered DMSO injections. Recorded the survival status of the animals. Prior to liver collection, the mice were anesthetized with isoflurane to minimize pain and euthanized by cervical dislocation. Ethics approval serial number: IACUC-20240613-03. Animal experiments were conducted in accordance with the Guide for the Care and Use of Laboratory Animals (Ministry of Science and Technology of China, 2006).
MHCC97 H cells labeled with luciferase (1 × 10^5 cells) were injected into the 4- to 5-week-old female BALB/c-nu mice (SPF grade, average weight 16–18 g) through intravenous injection. Following the injection, luciferase substrate was delivered to the mice via intraperitoneal injection. After a 5-min period of anesthesia with isoflurane, the mice were imaged using an in vivo small animal imaging system. […]

[4] = tested on: MHCC97H and SMMC 7721 cells; test: CCK8 cell viability screen of mulberry active substances; assay type: cell-based, human; conditions: 10 μM, 48 h
Procedure: The CCK8 assay is used to investigate the effect of compounds on cell viability by measuring the amount of formazan dye. Firstly, 8000 cells were inoculated into each well of the 96-well plate with three replicates per condition. At the same time, add the corresponding mulberry active substances. After 48 h of incubation, 20 μL of the Cell Counting Kit-8 (CCK8) reagent (Beyotime, Shanghai, China) was added to each well. After being cultured under 37 °C and 5% carbon dioxide for 2–3 h, the absorbance was measured at 450 nm.

[5] = tested on: phosphorylation of MEK1/2 and ERK1/2; test: Western blot of MAPK pathway; assay type: cell-based, human
Procedure: Cells were harvested using a cell scrape and washed three times with PBS buffer, then lysed on ice in RIPA lysis buffer (Beyotime, Shanghai, China). Protein concentration was determined using a BCA protein assay kit (Beyotime, Shanghai, China). Subsequently, 60 µg of protein was mixed with 5× loading buffer and heated in a 100 °C water bath for 15 min. The samples were subjected to SDS-PAGE electrophoresis, followed by transfer onto a PVDF membrane (Millipore, Darmstadt, Germany). The membrane was blocked with 5% BSA for 2 h at room temperature and incubated sequentially with primary and HRP-conjugated secondary antibodies. Finally, signal detection was performed using an ECL detection system (Clinx, Shanghai, China).

YWHAB = target: T1, YWHAB (Homo sapiens, UniProt P31946); test: Cell thermal shift assay (CETSA); assay type: binding; set-up: endogenous in cells; host or cells: MHCC97 H and SMMC 7721; conditions: high concentration of KA, 3 h, MHCC97 H and SMMC 7721, 44–65 °C
T1 sequence (P31946 1-246): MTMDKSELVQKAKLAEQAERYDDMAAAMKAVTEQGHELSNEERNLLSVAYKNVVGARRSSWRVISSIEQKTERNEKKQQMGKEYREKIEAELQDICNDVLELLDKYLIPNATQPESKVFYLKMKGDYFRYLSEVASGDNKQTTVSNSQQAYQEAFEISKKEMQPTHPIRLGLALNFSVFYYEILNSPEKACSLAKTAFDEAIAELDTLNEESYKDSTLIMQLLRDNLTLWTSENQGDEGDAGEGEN
Procedure: The cells were treated with a high concentration (3–4 times the IC50) of the drug for 2–4 h before being digested with trypsin. Then the cells were washed 1–2 times with PBS. Resuspend the cells in […] of PBS. Subsequently, divided them into eight portions, each containing 50 µL. Set the appropriate temperature range and gradient. In our research, the range of 44–65 °C was used. Each portion of cells was treated at the specified temperature for 3–5 min. Then, the cells were repeatedly frozen and thawed using liquid nitrogen. After high-speed centrifugation (20,000× g, 20 min), we took the top layer of supernatant. After adding an appropriate amount of loading buffer, we conducted the Western Blot assay. Quantitative analysis was used to determine whether the compound has enhanced the thermal stability of the target protein.

## CC(C)=CCc1c(-c2ccc(O)c3c2OC(C)(C)C=C3)oc2cc(O)cc(O)c2c1=O [KA, Kuwanon A]
[1]
  nuclear translocation of ERK: inhibited the nuclear translocation of ERK
[2]
  wound healing (cell scratch assay): significant reduction in wound healing
MHCC97 H cells
  migration of MHCC97 H (Transwell): significantly inhibited the migration of MHCC97 H
[3]
  pulmonary metastasis (in vivo imaging): significantly inhibited the pulmonary metastasis
[4]
  viability of HCC cells (CCK8): significantly inhibited the viability of HCC cells
[5]; YWHAB-overexpressing HCC cells, KA 15 μM, 48 h
  KA's effects on MEK1/2 and ERK1/2 phosphorylation under YWHAB overexpression: partly abrogated
[5]; indicated concentrations 48 h, 15 μM for 24 or 48 h
  phosphorylation levels of MEK1/2 and ERK1/2 (Western blot): significant downregulation of the phosphorylation levels of MEK1/2 and ERK1/2
YWHAB
  thermal stability of YWHAB (CETSA): increased thermal stability of YWHAB
